We go through four compounds from PubChem BioAssay AID2060493 (Molecular Pharmacology Branch, DTP, NCI, 2025).

Values joined by “and” are separate entries in the source; they are usually repeats but may differ in a detail not shown here. Equal values may be shown once.

The test system of the assay is 616215-338-R-J1-PDC tumor spheroids, viability. Put plainly: Anticancer human tumor 616215-338-R-J1-PDC patient-derived colon adenocarcinoma cell line growth inhibition [GQUAD]. The following applies: spheroids with HUVEC and MSC; for viability, T/C: stronger effect = lower value. From the text: DNA G-quadruplex Stabilizer Agents in Combinations in Complex Spheroids
A high-throughput screen of multi-cell type tumor spheroids was designed to identify active combinations of DNA G-quadruplex stabilizer agents and targeted small molecules. Complex spheroids include a stromal component modeled by human endothelial cells (HUVEC) and fibroblasts modeled by human mesenchymal stem cells (MSCs). The concentration ranges selected for each drug and investigational agent were based upon clinically achievable concentrations if the clinical Cmax of the agent was known.
Compounds. The drugs and investigational agents: pidnarulex (CX-5461; NSC782164), APTO-253 (NSC789042), BRACO-19 (NSC847499), peposertib (NSC802822), ceralasertib (NSC780249), elimusertib (NSC800525), camonsertib (NSC841442), AZD-1390 (NSC803789), olaparib (NSC753686), talazoparib (NSC767125), ART-558 (NSC835418), sotorasib (NSC818433), MRTX-1133 (NSC836407), SN-38 (NSC673596), topotecan (NSC609699), etoposide (NSC141540), doxorubicin (NSC123127), gemcitabine (NSC613327), 5-fluorouracil (NSC19893), paclitaxel (NSC125973), vemurafenib (NSC761431), panobinostat (NSC761190), R-306465 (JNJ-16241199; NSC773264), adavosertib (NSC754352), TP-3654 (NSC805149), carboplatin (NSC241240), KSQ-4279 (NSC840948), and staurosporine (NSC755774) were obtained from the National Cancer Institute (NCI) Developmental Therapeutics Program Chemical Repository (34). The FDA-approved anticancer drug set is available from the NCI Developmental Therapeutics Program. […] The stock solutions were prepared in dimethyl sulfoxide (DMSO, Sigma-Aldrich, St. Louis, MO, cat. D2650) at 800-fold the tested concentration and stored at -70 degrees C prior to their use. All drugs and investigational agents were tested over a range starting from a high concentration at or near the clinical Cmax and decreasing in half-log increments. If the clinical Cmax for an agent had not been determined, the highest concentration tested was 10 microM.
2.3 Cell Culture. All cells were maintained in an incubator at 37 degrees C and 5% CO2 with 95% humidity. The PDC lines were cultured according to standard operating procedures established by the NCI PDMR. All PDCs were thawed and cultured in Matrigel-coated flasks prepared with a working solution of 1X Ham's F-12 nutrient mix, without supplementation (Invitrogen, cat. 11765054), 100 U/mL penicillin-streptomycin (Invitrogen, cat. 15140122), and 2.5% Matrigel (Corning Inc., cat. 354248) for the first three passages. The 857933-349-R-J2-PDC line was cultured in 6C/Colon 1B media, which includes advanced DMEM/F-12 (Thermo Fisher Scientific, cat. 12634028), 10 mM HEPES (Thermo Fisher Scientific, cat. 15630080), 1X GlutaMAX supplement (Thermo Fisher Scientific, cat. 35050061), 0.1 mg/mL primocin (InvivoGen, cat. ant-pm-2), 10% defined fetal bovine serum, heat inactivated (HyClone Laboratories Inc., cat. SH30070.03HI), 50% L-WRN conditioned media (ATCC, cat. CRL-3276), 1.25 mM N-Acetyl-L-cysteine (Sigma-Aldrich, cat. A9165), 10 mM nicotinamide (Sigma-Aldrich, cat. N0636), 1X B-27 supplement (Thermo Fisher Scientific, cat. 17504044), 1X N-2 supplement (Thermo Fisher Scientific, cat. 17502048), 10 microM Y-27632 dihydrochloride (Tocris Bioscience, cat. 1254), and 50 ng/mL human EGF recombinant protein (Thermo Fisher Scientific, cat. PHG0311). The 485176-168-R4-J1-PDC line was cultured in Panc media, which includes all 6C/Colon 1B media components plus 100 ng/mL human FGF-10 (Thermo Fisher Scientific, cat. 100-26), 500 nM SB-431542 (Selleckchem, cat. S1067), and gastrin (Tocris, cat. 3006).
[…]
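Note: spheroids exposed to agents for 7 days before readout.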
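Throughout, for viability, T/C: percent viability relative to DMSO vehicle control wells taken as 100%.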

On to `COc1ccc([C@@H](O)c2cc(-c3ncnc4cc(N5CCOCC5)ccc34)c(F)cc2Cl)nn1` + Cc1[nH]c2ccc(F)cc2c1-c1nc2c3cccnc3c3ncccc3c2[nH]1, for which the IC50 (curve of first compound, second compound 0.0316 µM) was greater than 10 µM; the IC50 (curve of first compound, second compound 0.1 µM) was greater than 10 µM; the IC50 (curve of first compound, second compound 0.316 µM) was greater than 10 µM; the IC50 (curve of first compound, second compound 1 µM) was greater than 10 µM; the IC50 (curve of first compound, second compound 3.16 µM) was greater than 10 µM; the IC50 (curve of first compound, second compound 10 µM) came out at 8.73 µM. For the same compound, the viability, T/C reads like this: (second compound 0.0316 µM, first compound 0.0316 µM) 106%; (second compound 0.0316 µM, first compound 0.1 µM) 108%; (second compound 0.0316 µM, first compound 0.316 µM) 101%; (second compound 0.0316 µM, first compound 1 µM) 105%; (second compound 0.0316 µM, first compound 3.16 µM) 106%; (second compound 0.0316 µM, first compound 10 µM) 53.6%. Moreover, the viability, T/C runs as follows: (second compound 0.1 µM, first compound 0.0316 µM) 108%; (second compound 0.1 µM, first compound 0.1 µM) 104%; (second compound 0.1 µM, first compound 0.316 µM) 110%; (second compound 0.1 µM, first compound 1 µM) 104%; (second compound 0.1 µM, first compound 3.16 µM) 104%; (second compound 0.1 µM, first compound 10 µM) 58.4%. The viability, T/C was 104% (second compound 0.316 µM, first compound 0.0316 µM); 111% (second compound 0.316 µM, first compound 0.1 µM); 111% (second compound 0.316 µM, first compound 0.316 µM); 111% (second compound 0.316 µM, first compound 1 µM); 111% (second compound 0.316 µM, first compound 3.16 µM); 61% (second compound 0.316 µM, first compound 10 µM). In addition, the viability, T/C was 101% (second compound 1 µM, first compound 0.0316 µM); 99.2% (second compound 1 µM, first compound 0.1 µM); 104% (second compound 1 µM, first compound 0.316 µM); 96.8% (second compound 1 µM, first compound 1 µM); 90.2% (second compound 1 µM, first compound 3.16 µM); 72.5% (second compound 1 µM, first compound 10 µM). The viability, T/C (second compound 3.16 µM, first compound 0.0316 µM) is 96.7%; the viability, T/C (second compound 3.16 µM, first compound 0.1 µM) is 99.2%; the viability, T/C (second compound 3.16 µM, first compound 0.316 µM) was 90%; the viability, T/C (second compound 3.16 µM, first compound 1 µM) is 97.8%; the viability, T/C (second compound 3.16 µM, first compound 3.16 µM) is 97.4%; the viability, T/C (second compound 3.16 µM, first compound 10 µM) is 51.2%. Moreover, the viability, T/C is 90.3% (second compound 10 µM, first compound 0.0316 µM); 101% (second compound 10 µM, first compound 0.1 µM); 97.4% (second compound 10 µM, first compound 0.316 µM); 117% (second compound 10 µM, first compound 1 µM); 100% (second compound 10 µM, first compound 3.16 µM); 43.2% (second compound 10 µM, first compound 10 µM).

With `C#Cc1c(F)ccc2cc(O)cc(-c3ncc4c(N5CC6CCC(C5)N6)nc(OCC56CCCN5CC(F)C6)nc4c3F)c12` (centres undefined), the viability, T/C reads like this: (compound 0.0316 µM) 100% and 113% and 106%; (compound 0.1 µM) 90.1% and 98.3% and 110%; (compound 0.316 µM) 102% and 104% and 110%; (compound 1 µM) 80.2% and 106% and 104%; (compound 3.16 µM) 68% and 106% and 91.7%; (compound 10 µM) 45.8% and 63.5% and 59.2%. For the same compound, for the setting “curve of compound”, the IC50 is 8.04 µM and > 10 µM.

Take `Cc1[nH]c2ccc(F)cc2c1-c1nc2c3cccnc3c3ncccc3c2[nH]1`: the viability, T/C runs as follows: (compound 0.0316 µM) 105% [middle of 12 runs]; (compound 0.1 µM) 104% [middle of 12 runs]; (compound 0.316 µM) 99.5% [middle of 12 runs]; (compound 1 µM) 100% [middle of 12 runs]; (compound 3.16 µM) 91.3% [middle of 12 runs]; (compound 10 µM) 98% [middle of 12 runs]. The IC50 was greater than 10 µM (compound alone, run of 04/16/2024) and greater than 10 µM (compound alone, run of 04/22/2024).

With `CC1COCCN1c1cc(C2(O)CC3CCC(C2)O3)c2cnn(-c3ccn[nH]3)c2n1` (centres undefined), the viability, T/C by setting is: (compound 0.0316 µM) 95.2% and 102% and 99.8%; (compound 0.1 µM) 60.7% and 60.2% and 55.6%; (compound 0.316 µM) 45.5% and 31.8% and 40.3%; (compound 1 µM) 34.9% and 39.4% and 31.6%; (compound 3.16 µM) 21.1% and 23.5% and 21.3%; (compound 10 µM) 23.2% and 16.9% and 12.9%. Also, the IC50 (curve of compound) was 0.217 µM and 0.171 µM and 0.175 µM.

For orientation: IC50 means the midpoint of a concentration-inhibition curve. One may read the viability, T/C as the result in the treated group divided by that in the control group, in per cent.
